Reference: patent US20180147206A1, “ACTIVATION OF NEURONAL STORE-OPERATED CALCIUM ENTRY PATHWAY FOR THE TREATMENT OF ALZHEIMER'S DISEASE” (The Board of Regents of the University of Texas System, priority 2015, published 2018)

What was measured:
[1] = system: mushroom spines in hippocampal CA1 neurons; experiment: Dendritic spine analysis in mice hippocampus after i.p. treatment; type: in vivo, mouse; conditions: i.p. 10 mg/kg for 10 weeks
[2] = In vivo pharmacokinetics (plasma and brain); design: species or system mouse; conditions: i.p. 10 mg/kg, female CD-1 mice
Experimental: FIGS. 12A-D. NSN21778 in vitro metabolism stability, in vivo plasma pharmacokinetics, and side effect on body weight (Related to FIGS. 7A-G). (FIG. 12A) The metabolic stability of NSN21778 was evaluated in vitro after incubation with commercial liver S9 fractions in the presence of phase I (NADPH regenerating system) cofactors. Compound levels were determined by LC-MS/MS. Additionally, the stability of NSN21778 in the presence of commercial CD-1 mouse plasma was measured. (FIG. 12B) NSN21778 was dosed i.p. at 10 mg/kg to female CD-1 mice. Levels of NSN21778 in plasma and brain were evaluated by LC-MS/MS. (FIG. 12C) WTGFP, PS1KIGFP and APPKIGFP mice body weight after i.p. administrated with control solution or 10 mg/kg NSN21778 for 10 weeks. Data presented as mean±SE (n=5 mice). […]
In vivo pharmacokinetics. […] The supernatant was then analyzed by LC-MS/MS. […] The limit of quantitation (LOQ) was defined as the lowest concentration at which back calculation yielded a concentration within 20% of the theoretical value and above the LOD signal. […] Because the animals were not perfused prior to tissue isolation, to determine the final brain concentration of NSN21778, the amount of compound in brain due to brain vasculature was first subtracted using the calculated plasma concentrations of NSN21778 and a value of 30 μl of blood/g of brain tissue (Kwon, 2001).

hippocampal LTP = experiment: Hippocampal slice field recordings (LTP); type: cell-based, mouse; conditions: pre-treatment 300 nM for 2-3 hours
Experimental: FIGS. 6A-E. NSN21778 rescues mushroom spine and synaptic plasticity defects in AD hippocampal slices. (FIG. 6A) Confocal images of CA1 hippocampal slices from 6 month-old WTGFP, PS1KIGFP, and APPKIGFP mice. The images are shown for untreated slices (CON) and for slices treated with 300 nM NSN21778 (+NSN) for 3.5 hrs prior to fixation. Scale bar is 10 μm. (FIG. 6B) The fraction of mushroom spines in hippocampal CA1 neurons from 6 month-old WTGFP, PS1KIGFP, and APPKIGFP mice. The results are shown for untreated slices (CON) and for slices treated with 300 nM NSN21778 (+NSN). The average fraction of mushroom spines for each group of cells is shown as mean±SE (n≥31 neurons). ***, p <0.001. (FIG. 6C) Sample fEPSP traces are shown for 6 month-old WT and APPKI hippocampal slices prior to stimulation (basal), immediately after tetanus stimulation (induction) and 1 h after tetanus stimulation (after 1 hr). The results are shown for untreated slices and for slices pre-treated with 300 nM NSN21778 (+NSN) for 2-3 hours prior to tetanus stimulation. […]
Hippocampal slice field recordings. […] Field potentials (FPs) were recorded with extracellular recording electrodes (1 MΩ) filled with ACSF and placed in stratum radiatum of area CA1. […] The initial slope of the FPs was used to measure stability of synaptic responses and quantify the magnitude of LTP. […]

CC(=O)Nc1ccc(CCNc2ncnc3ccc(N)cc23)cc1 [NSN21778, N-{4-[2-(6-Amino-quinazolin-4-ylamino)-ethyl]-phenyl}-acetamide]
mushroom spine deficiency in vivo ([1]; PS1KIGFP and APPKIGFP mice): rescue of mushroom spine deficiency | mushroom spines in vivo ([1]; WTGFP mice): no effect | brain penetration [2]: poor | levels in plasma [2]: modest levels | LTP defect (hippocampal LTP; APPKI slices, 6 month-old): completely rescued | LTP (hippocampal LTP; wild-type slices): no significant effect
